The results in this text go back to patent publication US20100184699A1, “Peptide Derived From Prostate-Related Protein As Cancer Vaccine Candidate For Prostate Cancer Patient Who Is Positive For Hla-A3 Super-Type Allele Molecule” (priority 2005, published 2010).

This test relates to peptide-specific IgG in plasma of prostate cancer patients and healthy donors. The test is described as follows: Detection of peptide-specific IgG in plasma by ELISA. It counts as binding, human. The following applies: for IgG reactive to peptide in plasma: 1:100-diluted plasma. Background: In an ELISA, binding on a coated surface is turned into a signal by an enzyme label.
Where [1] appears, read: Prostate cancer patient 13, A11.
Where [2] appears, read: Prostate cancer patient 14, A33.
[3] abbreviates: Prostate cancer patient 12, A11.
The mark [4] stands for this setting: Prostate cancer patient 16, A33.
[5] abbreviates: Prostate cancer patient 17, A33.
[6] abbreviates: Prostate cancer patient 19, A33.
Where [7] appears, read: Prostate cancer patient 20, A33.

On to “VTLVFRHGDR (PAP 38-47) [PAP-derived peptide]”, for which the “IgG reactive to peptide in plasma” value runs as follows: (Healthy donor 8, A31) “+ (IgG reactive to a corresponding peptide was judged to be positive when a difference of the optical density (OD) in a 1:100-diluted plasma was more than 100)”; (Prostate cancer patient 9, A11) “+ (IgG reactive to a corresponding peptide was judged to be positive when a difference of the optical density (OD) in a 1:100-diluted plasma was more than 100)”. Also, the “IgG reactive to peptide in plasma, Total (positive/tested)” value (shortened to “IgG reactive … (positive/tested)”) is recorded as 1/9 (Healthy donors) and 1/20 (Prostate cancer patients).
As to “VTKFMLCAGR (PSA 192-201) [PSA-derived peptide]”, the “IgG reactive … (positive/tested)” value is recorded as 0/9 (Healthy donors) and 1/20 (Prostate cancer patients). The “IgG reactive to peptide in plasma” value (Prostate cancer patient 10, A11) is listed as “+ (IgG reactive to a corresponding peptide was judged to be positive when a difference of the optical density (OD) in a 1:100-diluted plasma was more than 100)”.
Regarding “VYIRSTDVDR (PAP 102-111) [PAP-derived peptide]”, the “IgG reactive … (positive/tested)” value (Healthy donors) is 0/9 and the “IgG reactive … (positive/tested)” value (Prostate cancer patients) was 2/20. Besides, the “IgG reactive to peptide in plasma” value under setting [1] is on record as “+ (IgG reactive to a corresponding peptide was judged to be positive when a difference of the optical density (OD) in a 1:100-diluted plasma was more than 100)” and the “IgG reactive to peptide in plasma” value under setting [2] is “+ (IgG reactive to a corresponding peptide was judged to be positive when a difference of the optical density (OD) in a 1:100-diluted plasma was more than 100)”.
In the case of “HYELGEYIR (PAP 78-86) [PAP-derived peptide]”, the “IgG reactive to peptide in plasma” value is, setting by setting: (Healthy donor 3, A31) “+ (IgG reactive to a corresponding peptide was judged to be positive when a difference of the optical density (OD) in a 1:100-diluted plasma was more than 100)”; under setting [2], “+ (IgG reactive to a corresponding peptide was judged to be positive when a difference of the optical density (OD) in a 1:100-diluted plasma was more than 100)”. For the same sequence, the “IgG reactive … (positive/tested)” value is given as 1/9 (Healthy donors) and 1/20 (Prostate cancer patients).
“FQRLGIASGR (PSMA 525-534) [PSMA-derived peptide]”: the “IgG reactive … (positive/tested)” value reads like this: (Healthy donors) 0/9; (Prostate cancer patients) 11/20. Also, the “IgG reactive to peptide in plasma” value (Prostate cancer patient 2, A31) was “+ (IgG reactive to a corresponding peptide was judged to be positive when a difference of the optical density (OD) in a 1:100-diluted plasma was more than 100)”; the “IgG reactive to peptide in plasma” value (Prostate cancer patient 4, A31) is recorded as “+ (IgG reactive to a corresponding peptide was judged to be positive when a difference of the optical density (OD) in a 1:100-diluted plasma was more than 100)”; the “IgG reactive to peptide in plasma” value (Prostate cancer patient 5, A31) is given as “+ (IgG reactive to a corresponding peptide was judged to be positive when a difference of the optical density (OD) in a 1:100-diluted plasma was more than 100)”; the “IgG reactive to peptide in plasma” value (Prostate cancer patient 6, A31) is reported as “+ (IgG reactive to a corresponding peptide was judged to be positive when a difference of the optical density (OD) in a 1:100-diluted plasma was more than 100)”; the “IgG reactive to peptide in plasma” value (Prostate cancer patient 8, A11) was “+ (IgG reactive to a corresponding peptide was judged to be positive when a difference of the optical density (OD) in a 1:100-diluted plasma was more than 100)”; the “IgG reactive to peptide in plasma” value (Prostate cancer patient 9, A11) was “+ (IgG reactive to a corresponding peptide was judged to be positive when a difference of the optical density (OD) in a 1:100-diluted plasma was more than 100)”. Also, the “IgG reactive to peptide in plasma” value is “+ (IgG reactive to a corresponding peptide was judged to be positive when a difference of the optical density (OD) in a 1:100-diluted plasma was more than 100)” under setting [3]; “+ (IgG reactive to a corresponding peptide was judged to be positive when a difference of the optical density (OD) in a 1:100-diluted plasma was more than 100)” under setting [4]; “+ (IgG reactive to a corresponding peptide was judged to be positive when a difference of the optical density (OD) in a 1:100-diluted plasma was more than 100)” under setting [5]; “+ (IgG reactive to a corresponding peptide was judged to be positive when a difference of the optical density (OD) in a 1:100-diluted plasma was more than 100)” under setting [6]; “+ (IgG reactive to a corresponding peptide was judged to be positive when a difference of the optical density (OD) in a 1:100-diluted plasma was more than 100)” under setting [7].
For the sequence “VIARYGKVFR (PSMA 201-210) [PSMA-derived peptide]”, the “IgG reactive … (positive/tested)” value by setting is: (Healthy donors) 0/9; (Prostate cancer patients) 7/20. The “IgG reactive to peptide in plasma” value is recorded as “+ (IgG reactive to a corresponding peptide was judged to be positive when a difference of the optical density (OD) in a 1:100-diluted plasma was more than 100)” (Prostate cancer patient 4, A31); “+ (IgG reactive to a corresponding peptide was judged to be positive when a difference of the optical density (OD) in a 1:100-diluted plasma was more than 100)” (Prostate cancer patient 6, A31); “+ (IgG reactive to a corresponding peptide was judged to be positive when a difference of the optical density (OD) in a 1:100-diluted plasma was more than 100)” (Prostate cancer patient 9, A11); “+ (IgG reactive to a corresponding peptide was judged to be positive when a difference of the optical density (OD) in a 1:100-diluted plasma was more than 100)” under setting [3]; “+ (IgG reactive to a corresponding peptide was judged to be positive when a difference of the optical density (OD) in a 1:100-diluted plasma was more than 100)” under setting [4]; “+ (IgG reactive to a corresponding peptide was judged to be positive when a difference of the optical density (OD) in a 1:100-diluted plasma was more than 100)” under setting [5]. Besides, the “IgG reactive to peptide in plasma” value runs as follows: under setting [6], “+ (IgG reactive to a corresponding peptide was judged to be positive when a difference of the optical density (OD) in a 1:100-diluted plasma was more than 100)”; under setting [7], “+ (IgG reactive to a corresponding peptide was judged to be positive when a difference of the optical density (OD) in a 1:100-diluted plasma was more than 100)”.
For “LYTKVVHYR (PSA 242-250) [PSA-derived peptide]”, the “IgG reactive … (positive/tested)” value by setting is: (Healthy donors) 0/9; (Prostate cancer patients) 0/20.
For the sequence “HIHSTNEVTR (PSMA 345-354) [PSMA-derived peptide]”, the “IgG reactive … (positive/tested)” value by setting is: (Healthy donors) 0/9; (Prostate cancer patients) 11/20. The “IgG reactive to peptide in plasma” value reads like this: (Prostate cancer patient 2, A31) “+ (IgG reactive to a corresponding peptide was judged to be positive when a difference of the optical density (OD) in a 1:100-diluted plasma was more than 100)”; (Prostate cancer patient 4, A31) “+ (IgG reactive to a corresponding peptide was judged to be positive when a difference of the optical density (OD) in a 1:100-diluted plasma was more than 100)”; (Prostate cancer patient 5, A31) “+ (IgG reactive to a corresponding peptide was judged to be positive when a difference of the optical density (OD) in a 1:100-diluted plasma was more than 100)”; (Prostate cancer patient 6, A31) “+ (IgG reactive to a corresponding peptide was judged to be positive when a difference of the optical density (OD) in a 1:100-diluted plasma was more than 100)”; (Prostate cancer patient 9, A11) “+ (IgG reactive to a corresponding peptide was judged to be positive when a difference of the optical density (OD) in a 1:100-diluted plasma was more than 100)”; under setting [3], “+ (IgG reactive to a corresponding peptide was judged to be positive when a difference of the optical density (OD) in a 1:100-diluted plasma was more than 100)”. The “IgG reactive to peptide in plasma” value by setting is: under setting [1], “+ (IgG reactive to a corresponding peptide was judged to be positive when a difference of the optical density (OD) in a 1:100-diluted plasma was more than 100)”; under setting [4], “+ (IgG reactive to a corresponding peptide was judged to be positive when a difference of the optical density (OD) in a 1:100-diluted plasma was more than 100)”; under setting [5], “+ (IgG reactive to a corresponding peptide was judged to be positive when a difference of the optical density (OD) in a 1:100-diluted plasma was more than 100)”; under setting [6], “+ (IgG reactive to a corresponding peptide was judged to be positive when a difference of the optical density (OD) in a 1:100-diluted plasma was more than 100)”; under setting [7], “+ (IgG reactive to a corresponding peptide was judged to be positive when a difference of the optical density (OD) in a 1:100-diluted plasma was more than 100)”.
